Columns and labels:
[1] = system: AS1411-N6 (DNA, G4) GGTTGGGGTGGTGGTGGTTGTGGTGGTGGTGGCCAACC; experiment: CD spectra; settings: K+ 140 mM, 10 mM lithium cacodylate
[2] = system: AS1411-N6 (biotin-labeled) (DNA, G4) GGTTGGGGTGGTGGTGGTTGTGGTGGTGGTGGCCAACC; experiment: SPR; settings: K+ 140 mM; 10 mM phosphate, 25 °C; 1:1 affinity model
[3] = system: AS1411-N6 (FRET-labeled) (DNA, G4) GGTTGGGGTGGTGGTGGTTGTGGTGGTGGTGGCCAACC; experiment: FRET melting; settings: K+ 140 mM; 10 mM lithium cacodylate pH 7.2; ligand 4 eq., DNA 0.2 µM
[4] = system: AS1411 (FRET-labeled) (DNA, G4) GGTGGTGGTGGTTGTGGTGGTGGTGG; experiment: FRET melting; settings: K+ 140 mM; 10 mM lithium cacodylate pH 7.2; ligand 4 eq., DNA 0.2 µM
[5] = system: AS1411 (DNA, G4) GGTGGTGGTGGTTGTGGTGGTGGTGG; experiment: CD melting (260 nm); settings: K+ 140 mM; 10 mM lithium cacodylate pH 7.2; ligand equivalents not given
[6] = system: AS1411 (biotin-labeled) (DNA, G4) GGTGGTGGTGGTTGTGGTGGTGGTGG; experiment: SPR; settings: K+ 140 mM; 10 mM phosphate, 25 °C; 1:1 affinity model
[7] = system: AS1411-N6 (DNA, G4) GGTTGGGGTGGTGGTGGTTGTGGTGGTGGTGGCCAACC; experiment: 1H NMR titration (imino region); settings: 10 mM potassium phosphate pH 6.9, 10% D2O, 25 °C; duplex signals lost at 3 eq.
[8] = system: AS1411 (DNA, G4) GGTGGTGGTGGTTGTGGTGGTGGTGG; experiment: CD spectra; settings: K+ 140 mM; 10 mM lithium cacodylate; ellipticity increase
[9] = system: AS1411-N6 (DNA, G4) GGTTGGGGTGGTGGTGGTTGTGGTGGTGGTGGCCAACC; experiment: CD melting (260 nm); settings: K+ 140 mM; 10 mM lithium cacodylate pH 7.2; ligand 4 eq., DNA 10 µM
[10] = target: T1, nucleolin RBD1,2 (NCL RBD 1,2) (UniProt P19338 307-466); experiment: fluorescence titration; PhenDC3; PAGE: 10 mM phosphate, 140 mM KCl, 20 uM DNA, 1:1(:1) ratio, 30 min; fluorescence titration buffer, pH and temperature not given in the material; settings: protein: recombinant; unlabelled in PAGE; stem-loop duplex plus G4; monomer major, dimer band also seen
T1 sequence (P19338 307-466): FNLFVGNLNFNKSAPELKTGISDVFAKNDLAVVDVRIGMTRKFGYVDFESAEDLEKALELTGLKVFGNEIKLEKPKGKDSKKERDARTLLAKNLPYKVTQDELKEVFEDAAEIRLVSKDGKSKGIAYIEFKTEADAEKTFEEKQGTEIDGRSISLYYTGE

[11] = target: T1, nucleolin RBD1,2 (NCL RBD 1,2); experiment: fluorescence titration; TMPyP4; PAGE: 10 mM phosphate, 140 mM KCl, 20 uM DNA, 1:1(:1) ratio, 30 min; fluorescence titration buffer, pH and temperature not given in the material; settings: protein: recombinant; unlabelled in PAGE; stem-loop duplex plus G4; monomer major, dimer band also seen
[12] = target: T1, nucleolin RBD1,2 (NCL RBD 1,2); experiment: fluorescence titration; no ligand; PAGE: 10 mM phosphate, 140 mM KCl, 20 uM DNA, 1:1(:1) ratio, 30 min; fluorescence titration buffer, pH and temperature not given in the material; settings: protein: recombinant; unlabelled in PAGE; stem-loop duplex plus G4; monomer major, dimer band also seen
[13] = target: T1, nucleolin RBD1,2 (NCL RBD 1,2); experiment: fluorescence titration; 360A; PAGE: 10 mM phosphate, 140 mM KCl, 20 uM DNA, 1:1(:1) ratio, 30 min; fluorescence titration buffer, pH and temperature not given in the material; settings: protein: recombinant; unlabelled in PAGE; stem-loop duplex plus G4; monomer major, dimer band also seen

Row | Molecule | KD [2] [nM] | ΔTm [3] [°C] | ΔTm [4] [°C] | KD [6] [nM] | binding [8] | other results
1 | C[n+]1ccc(-c2c3nc(c(-c4cc[n+](C)cc4)c4ccc([nH]4)c(-c4cc[n+](C)cc4)c4nc(c(-c5cc[n+](C)cc5)c5ccc2[nH]5)C=C4)C=C3)cc1 | 264 ± 30 | 28.94 ± 0.23 | 21.75 ± 1.08 | 115 ± 7.09 | – | binding ([1]; ellipticity increase): yes; ΔTm [5]: ~ 25 °C
2 | CN(C)c1ccc(Nc2c3ccc(NC(=O)CCN4CCCC4)cc3nc3cc(NC(=O)CCN4CCCC4)ccc23)cc1 | – | 3.73 ± 0.09 | 8.99 ± 0.79 | – | – | –
3 | GGTTGGGGTGGTGGTGGTTGTGGTGGTGGTGGCCAACC (structured_DNA) [AS1411-N6] | – | – | – | – | – | Kd [10]: 1500 ± 300 nM; Kd [11]: 1100 ± 200 nM; Kd [12]: 1000 ± 100 nM; Kd [13]: 700 ± 100 nM

Further lines, with some results ahead:

Row | KD [2] [nM] | ΔTm [3] [°C] | ΔTm [4] [°C] | KD [6] [nM] | binding [8] | Molecule | other results
4 | 38.2 ± 5.4 | 20.16 ± 0.41 | 19.28 ± 0.99 | 43.4 ± 8.47 | yes | C[n+]1cc(NC(=O)c2cccc(C(=O)Nc3cc4ccccc4[n+](C)c3)n2)cc2ccccc21 | binding [7]: yes; ΔTm [9]: > 30 °C
5 | – | 2.35 ± 0.44 | -0.75 ± 1.02 | – | – | NCCOc1cc(C(=O)Nc2cc(OCCN)c3ccccc3n2)nc(C(=O)Nc2cc(OCCN)c3ccccc3n2)c1 | –
6 | 227 ± 54 | 22.89 ± 1.49 | 24.77 ± 2.56 | 344 ± 53.8 | yes | C[n+]1cc(NC(=O)c2ccc3ccc4ccc(C(=O)Nc5cc6ccccc6[n+](C)c5)nc4c3n2)cc2ccccc21 | binding ([1]; 280 nm band lost at 3–4 eq.): yes

Reference: PMC7916057
